Common to all, as to format: cell-based
Series [1] deals with T1, mouse TLR2 (Mus musculus, UniProt Q9QUN7).
T1 construct: expressed in transfected cells; host or cells: HEK-Blue mTLR2
Put plainly: HEK-Blue mTLR2 Dose Response (NF-κB SEAP reporter). As for the experimental part: (§1) Toll-Like Receptor (TLR) stimulation is tested by assessing NF-κB activation in the TLR expressing cell lines. HEK-Blue h/mTLR2 cells have been stably transfected with human or mouse TLR2 and CD14. The activity of the test articles are tested on human and mouse TLR2, as potential agonists. The test articles are evaluated at seven concentrations and compared to control ligands (see list below). These steps are performed in triplicate.
A 5 μg/mL working stock was then prepared for each compound from the 20 μg/mL dilution in sterile PBS. Starting from the 5 μg/mL working stock, a series of six 1:4 serial dilutions were made by mixing 100 μL of the previous highest dilution with 300 μL sterile PBS.
(§2) The secreted embryonic alkaline phosphatase (SEAP) reporter is under the control of a promoter inducible by the transcription factor NF-κB. This reporter gene allows the monitoring of signaling through the TLR, based on the activation of NF-κB. In a 96-well plate (200 μL total volume) containing the appropriate cells (50,000-75,000 cells/well), 20 μL of the test article or the positive control ligand (HKLC) is added to the wells. The media added to the wells is designed for the detection of NF-κB induced SEAP expression. After a 16-24-hour incubation the optical density (OD) is read at 650 nm on a Molecular Devices SpectraMax 340PC absorbance detector.

In series [2] the test system is HEK-Blue Null1 cells. Put plainly: HEK-Blue Null1 control cell line (control for human TLR2). As to conditions: TLR2-free control cells. As for the experimental part: as §2
Series [3] has as its target T2, human TLR2 (Homo sapiens, UniProt O60603).
T2 construct: expressed in transfected cells; host or cells: HEK-Blue hTLR2
Put plainly: HEK-Blue hTLR2 Dose Response (NF-κB SEAP reporter). As to conditions: for stimulatory (agonist) activity for hTLR2: HEK-Blue hTLR2. As for the experimental part: as §1
[…] Starting from the 5 μg/mL working stock, a series of six 1:4 serial dilutions were made by mixing 100 μL of the previous highest dilution with 300 μL sterile PBS.
as §2

The test system of series [4] is HEK-Blue Null2 cells. Kind of series: HEK-Blue Null2 control cell line (control for mouse TLR2). To be noted: TLR2-free control cells. As for the experimental part:
as §2

“And” between values parts separate entries of the source, which are not always exact repeats. Identical values can stand only once.

The EC50 is the midpoint of the concentration-response curve. Read a high EC50 as a need for much substance.

T2 sequence (O60603 21-784): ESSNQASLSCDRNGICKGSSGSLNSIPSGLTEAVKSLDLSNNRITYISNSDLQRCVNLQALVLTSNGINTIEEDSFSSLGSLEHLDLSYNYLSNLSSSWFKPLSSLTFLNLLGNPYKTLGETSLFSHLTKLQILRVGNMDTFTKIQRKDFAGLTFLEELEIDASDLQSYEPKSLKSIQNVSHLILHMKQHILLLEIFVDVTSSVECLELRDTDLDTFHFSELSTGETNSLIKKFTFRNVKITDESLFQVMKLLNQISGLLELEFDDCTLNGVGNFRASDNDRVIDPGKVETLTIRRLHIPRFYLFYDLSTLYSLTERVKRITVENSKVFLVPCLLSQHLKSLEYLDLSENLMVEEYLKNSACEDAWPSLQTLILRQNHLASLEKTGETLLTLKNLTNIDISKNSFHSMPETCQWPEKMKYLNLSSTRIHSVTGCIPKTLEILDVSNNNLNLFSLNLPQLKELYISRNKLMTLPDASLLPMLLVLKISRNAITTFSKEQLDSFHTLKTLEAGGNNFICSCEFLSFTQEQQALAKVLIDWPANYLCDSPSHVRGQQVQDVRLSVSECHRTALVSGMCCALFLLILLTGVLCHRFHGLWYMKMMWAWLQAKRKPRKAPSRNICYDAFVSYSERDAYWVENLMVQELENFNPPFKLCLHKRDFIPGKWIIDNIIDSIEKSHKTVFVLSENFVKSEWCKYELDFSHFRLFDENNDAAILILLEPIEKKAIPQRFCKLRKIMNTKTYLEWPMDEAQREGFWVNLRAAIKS
T2 sequence (Q9Y2C9 32-796 partner): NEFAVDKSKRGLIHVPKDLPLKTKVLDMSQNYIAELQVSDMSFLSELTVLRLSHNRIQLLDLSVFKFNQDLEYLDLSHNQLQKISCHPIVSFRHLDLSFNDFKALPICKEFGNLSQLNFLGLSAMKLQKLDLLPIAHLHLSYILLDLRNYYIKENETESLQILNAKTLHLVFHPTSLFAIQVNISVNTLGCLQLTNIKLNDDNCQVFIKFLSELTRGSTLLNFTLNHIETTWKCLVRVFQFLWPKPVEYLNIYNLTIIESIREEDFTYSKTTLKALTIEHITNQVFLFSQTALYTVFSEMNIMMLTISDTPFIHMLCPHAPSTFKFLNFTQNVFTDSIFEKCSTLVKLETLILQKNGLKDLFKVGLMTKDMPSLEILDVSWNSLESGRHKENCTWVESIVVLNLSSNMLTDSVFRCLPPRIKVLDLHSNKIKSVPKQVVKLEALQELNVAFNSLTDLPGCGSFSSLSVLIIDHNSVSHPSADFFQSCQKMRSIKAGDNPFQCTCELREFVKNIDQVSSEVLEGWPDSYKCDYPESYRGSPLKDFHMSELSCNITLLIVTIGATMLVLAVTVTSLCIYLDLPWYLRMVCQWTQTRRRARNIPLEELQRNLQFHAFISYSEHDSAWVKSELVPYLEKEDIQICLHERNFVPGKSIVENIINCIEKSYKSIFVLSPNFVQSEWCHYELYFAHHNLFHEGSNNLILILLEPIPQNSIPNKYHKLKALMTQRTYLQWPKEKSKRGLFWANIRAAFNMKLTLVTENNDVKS
T1 sequence (Q9QUN7 25-784): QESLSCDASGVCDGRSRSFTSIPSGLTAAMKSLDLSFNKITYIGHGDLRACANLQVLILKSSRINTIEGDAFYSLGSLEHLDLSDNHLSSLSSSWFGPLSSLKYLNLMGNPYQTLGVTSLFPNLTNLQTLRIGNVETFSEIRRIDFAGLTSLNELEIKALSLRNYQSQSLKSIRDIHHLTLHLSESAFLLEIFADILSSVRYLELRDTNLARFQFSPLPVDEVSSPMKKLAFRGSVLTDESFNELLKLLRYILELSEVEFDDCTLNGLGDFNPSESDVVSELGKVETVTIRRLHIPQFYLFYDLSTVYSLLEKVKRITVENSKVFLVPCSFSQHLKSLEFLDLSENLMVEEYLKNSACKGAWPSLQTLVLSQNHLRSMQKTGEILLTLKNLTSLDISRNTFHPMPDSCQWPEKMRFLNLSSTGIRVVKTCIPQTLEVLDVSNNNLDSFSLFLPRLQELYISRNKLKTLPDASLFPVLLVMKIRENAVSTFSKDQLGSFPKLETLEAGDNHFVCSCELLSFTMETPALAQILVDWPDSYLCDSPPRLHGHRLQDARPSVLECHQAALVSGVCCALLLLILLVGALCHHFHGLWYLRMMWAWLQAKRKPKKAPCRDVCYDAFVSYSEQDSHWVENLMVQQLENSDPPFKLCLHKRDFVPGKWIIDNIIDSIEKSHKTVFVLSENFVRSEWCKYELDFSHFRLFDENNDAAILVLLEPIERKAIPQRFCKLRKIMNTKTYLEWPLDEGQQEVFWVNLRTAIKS
T1 sequence (Q9Y2C9 32-796 partner): as the sequence (Q9Y2C9 32-796 partner) above

With `CCCCCCCCCCCCCC[C@@H](C)C(=O)OC[C@H](CSC[C@H](N)C(=O)N[C@@H](CO)C(=O)NCCOCCOCCOCCOCCOCCOCCOCCOCCOCCOCCOCCOCCOCCOCCOCCOCCOCCOCCOCCOCCOCCOCCOCCOCCOCCOCCOCCOCCC(=O)NCC(N)=O)OC(=O)[C@H](C)CCCCCCCCCCCCCC` [B6], the “stimulatory (agonist) activity for mTLR2” value in series [1] is “possesses stimulatory activity”. In addition, the “stimulatory response in HEK-Blue Null1 (human) cells” value (“stimulatory response … (human) cells” below) in series [2] is listed as “not observed”. Also, the “Fold Induction (ratio of average induced value to average non-induced value)” value in series [3] (0.12 pg/mL) amounted to 9.4. For the same molecule, the “optical density (650 nm), Average” value in series [3] (0.12 pg/mL) turned out to be 0.679; in series [3] (0.49 pg/mL) it was 1.156; in series [3] (1.95 pg/mL), 1.785; in series [3] (7.81 pg/mL) it was 2.186; in series [3] (31.25 pg/mL), 2.529; in series [3] (125 pg/mL) it was 2.470. In addition, the “optical density (650 nm), Average” value in series [3] (500 pg/mL) is recorded as 2.637. Moreover, the “optical density (650 nm), screenings 1-3” value in series [3] (0.12 pg/mL) was 0.591 and 0.742 and 0.704; in series [3] (0.49 pg/mL) it was 1.230 and 1.151 and 1.088; in series [3] (1.95 pg/mL), 1.755 and 1.776 and 1.824; in series [3] (7.81 pg/mL), 2.154 and 2.186 and 2.219; in series [3] (31.25 pg/mL), 2.512 and 2.527 and 2.547; in series [3] (125 pg/mL) it was 2.522 and 2.466 and 2.422. The “optical density (650 nm), screenings 1-3” value in series [3] (500 pg/mL) is 2.649 and 2.606 and 2.656. The “Fold Induction” value in series [3] (0.49 pg/mL) was 16.1; in series [3] (1.95 pg/mL) it was 24.8; in series [3] (7.81 pg/mL) it was 30.4; in series [3] (31.25 pg/mL) it was 35.1; in series [3] (125 pg/mL) it was 34.3; in series [3] (500 pg/mL), 36.6. Moreover, the “stimulatory (agonist) activity for hTLR2” value in series [3] is given as “possesses stimulatory activity”. In series [3] (agonism of hTLR2, HEK-Blue hTLR2), this molecule showed a 50% effective concentration (EC50) of 0.34 nM. In addition, the “stimulatory response in HEK-Blue Null2 (mouse) cells” value (shortened to “stimulatory response … (mouse) cells”) in series [4] was “not observed”.
Regarding `CCCCCCCCCCCCCC[C@H](C)C(=O)OC[C@H](CSC[C@H](N)C(=O)N[C@@H](CO)C(=O)NCCOCCOCCOCCOCCOCCOCCOCCOCCOCCOCCOCCOCCOCCOCCOCCOCCOCCOCCOCCOCCOCCOCCOCCOCCOCCOCCOCCOCCC(=O)NCC(N)=O)OC(=O)[C@@H](C)CCCCCCCCCCCCCC` [B8], the “stimulatory (agonist) activity for mTLR2” value in series [1] is listed as “possesses stimulatory activity”. In addition, the “stimulatory response … (human) cells” value in series [2] was “not observed”. Also, in series [3] (0.12 pg/mL), the “Fold Induction (ratio of average induced value to average non-induced value)” value was found to be 25.4. Moreover, the “optical density (650 nm), Average” value in series [3] (0.12 pg/mL) is 1.928; in series [3] (0.49 pg/mL), 2.243; in series [3] (1.95 pg/mL), 2.465; in series [3] (7.81 pg/mL) it was 2.565; in series [3] (31.25 pg/mL) it was 2.652; in series [3] (125 pg/mL) it was 2.735. In addition, the “optical density (650 nm), Average” value in series [3] (500 pg/mL) was found to be 2.668. Also, the “optical density (650 nm), screenings 1-3” value is 1.936 and 1.856 and 1.992 in series [3] (0.12 pg/mL); 2.345 and 2.229 and 2.154 in series [3] (0.49 pg/mL); 2.469 and 2.420 and 2.507 in series [3] (1.95 pg/mL); 2.326 and 2.636 and 2.734 in series [3] (7.81 pg/mL); 2.563 and 2.643 and 2.751 in series [3] (31.25 pg/mL); 2.746 and 2.716 and 2.743 in series [3] (125 pg/mL). The “optical density (650 nm), screenings 1-3” value in series [3] (500 pg/mL) was 2.648 and 2.664 and 2.693. Besides, the “Fold Induction” value is on record as 29.5 in series [3] (0.49 pg/mL); 32.4 in series [3] (1.95 pg/mL); 33.8 in series [3] (7.81 pg/mL); 34.9 in series [3] (31.25 pg/mL); 36 in series [3] (125 pg/mL); 35.1 in series [3] (500 pg/mL). Further, the “stimulatory (agonist) activity for hTLR2” value in series [3] is “possesses stimulatory activity”. In series [4], the “stimulatory response … (mouse) cells” value is recorded as “not observed”.
Regarding `CCCCCCCCCCCCCC[C@@H](C)C(=O)OCC[C@H](CSC[C@H](N)C(=O)N[C@@H](CO)C(=O)NCCOCCOCCOCCOCCOCCOCCOCCOCCOCCOCCOCCOCCOCCOCCOCCOCCOCCOCCOCCOCCOCCOCCOCCOCCOCCOCCOCCOCCC(=O)NCC(N)=O)OC(=O)[C@H](C)CCCCCCCCCCCCCC` [B14], in series [1], the “stimulatory (agonist) activity for mTLR2” value is “possesses stimulatory activity”. Moreover, the “stimulatory response … (human) cells” value in series [2] is given as “not observed”. Moreover, the “optical density (650 nm), Average” value turned out to be 0.823 in series [3] (0.12 pg/mL); 1.342 in series [3] (0.49 pg/mL); 2.018 in series [3] (1.95 pg/mL); 2.562 in series [3] (7.81 pg/mL); 2.744 in series [3] (31.25 pg/mL); 2.814 in series [3] (125 pg/mL). Moreover, the “optical density (650 nm), Average” value in series [3] (500 pg/mL) was 2.759. In addition, the “optical density (650 nm), screenings 1-3” value in series [3] (0.12 pg/mL) is 0.826 and 0.869 and 0.774; in series [3] (0.49 pg/mL), 1.256 and 1.364 and 1.406; in series [3] (1.95 pg/mL), 1.994 and 2.061 and 2.000; in series [3] (7.81 pg/mL), 2.569 and 2.545 and 2.571; in series [3] (31.25 pg/mL), 2.820 and 2.720 and 2.691; in series [3] (125 pg/mL) it was 2.928 and 2.800 and 2.713. Further, the “optical density (650 nm), screenings 1-3” value in series [3] (500 pg/mL) was 2.722 and 2.765 and 2.791. Also, in series [3] (500 pg/mL), the “Fold Induction” value is recorded as 33.9. Besides, the “stimulatory (agonist) activity for hTLR2” value in series [3] is listed as “possesses stimulatory activity”. Also, the “stimulatory response … (mouse) cells” value in series [4] is reported as “not observed”.
Take `CCCCCCCCCCCCCC[C@H](C)C(=O)OCC[C@H](CSC[C@H](N)C(=O)N[C@@H](CO)C(=O)NCCOCCOCCOCCOCCOCCOCCOCCOCCOCCOCCOCCOCCOCCOCCOCCOCCOCCOCCOCCOCCOCCOCCOCCOCCOCCOCCOCCOCCC(=O)NCC(N)=O)OC(=O)[C@@H](C)CCCCCCCCCCCCCC` [B16]: in series [1], the “stimulatory (agonist) activity for mTLR2” value was “possesses stimulatory activity”. Further, the “stimulatory response … (human) cells” value in series [2] is listed as “not observed”. The “optical density (650 nm), Average” value in series [3] (0.12 pg/mL) came to 0.666; in series [3] (0.49 pg/mL), 1.099; in series [3] (1.95 pg/mL) it was 1.521; in series [3] (7.81 pg/mL) it was 1.978; in series [3] (31.25 pg/mL) it was 2.252; in series [3] (125 pg/mL) it was 2.540. In addition, the “optical density (650 nm), Average” value in series [3] (500 pg/mL) is reported as 2.475. Moreover, the “optical density (650 nm), screenings 1-3” value is 0.688 and 0.591 and 0.718 in series [3] (0.12 pg/mL); 1.080 and 1.097 and 1.121 in series [3] (0.49 pg/mL); 1.478 and 1.513 and 1.573 in series [3] (1.95 pg/mL); 1.903 and 1.897 and 2.133 in series [3] (7.81 pg/mL); 2.093 and 2.297 and 2.367 in series [3] (31.25 pg/mL); 2.531 and 2.544 and 2.545 in series [3] (125 pg/mL). Moreover, the “optical density (650 nm), screenings 1-3” value in series [3] (500 pg/mL) is 2.466 and 2.488 and 2.472. Also, the “stimulatory (agonist) activity for hTLR2” value in series [3] is on record as “possesses stimulatory activity”. In series [4], the “stimulatory response … (mouse) cells” value is reported as “not observed”.

(Values after patent US20250302972A1, “FORMULATION” (ENA Respiratory Pty Ltd, priority 2021, published 2025).)
